Laboratory results from US7045529B2, “Imidazopyrimidinyl and imidazopyri dinyl derivatives” (Bristol-Myers Squibb Company, priority 1999, dated 2006).

Legend:
[1] = system: “anxiogenic” effects of CRF; conditions: cited from earlier work; for effect on the “anxiogenic” effects / actions of CRF in the conflict test: rats, literature (Britton et al.)

melting point	Structure (SMILES)	effect on the “anxiogenic” effects / actions of CRF in the conflict test [1]	behavioral activity alone in the operant conflict test ([1]; compound alone, without CRF, literature (Britton et al. 1988))
	CNC(=O)c1cc2c(cn1)[nH]c1ccccc12 [FG7142]	enhanced the actions of CRF	
99 to 100 °C	CCCC(C)n1c(CC)nc2c(-c3ccc(OC(F)F)cc3Cl)ncnc21 (centres unmarked) [Example 10, 6-(2-Chloro-4-difluoromethoxyphenyl)-8-ethyl-9-(2-pentyl)purine]		
	CCOC(=O)c1ncn2c1CN(C)C(=O)c1cc(F)ccc1-2 [Ro15-1788]	reversed the effects of CRF in a dose-dependent manner	without behavioral activity alone
119 to 120 °C	CCc1nc2c(-c3ccc(OC(F)(F)F)cc3Cl)ncnc2n1C(C1CC1)C1CC1 [Example 8, 6-(2-Chloro-4-trifluoromethoxyphenyl)-9-dicyclopropylmethyl-8-ethylpurine]		
